Consider two molecules from patent US20130189773A1, “PRODUCTION OF HYPOTHIOCYANITE FROM HALOGENATED CELLS” (priority 2012, published 2013).

Series [1] deals with A549 cells. The series is described as follows: flow cytometry of percent live, necrotic and apoptotic A549 cells. In kind it is cell-based, human. The method, then:
A549 cells were untreated (A), treated with 50 μM HOCl (B), treated with 50 μM SCN^− followed by treatment with 50 μM HOCl, (C), or treated with 50 μM HOCl followed by treatment 30 minutes later with 50 μM SCN^− (D).
Using the same protocol that was used to investigate the reaction of intracellular chloramines with SCN^− (FIG. 3), flow cytometry was employed to investigate the percent of live, necrotic, and apoptotic cells (FIG. 4).

Series [2] relates to A549 cells. Kind of series: fluorescent probe detection of HOCl-produced intracellular chloramines in A549 cells. It counts as cell-based, human. The method, then:
In each experiment, A549 cells were incubated with 50 μM HOCl in RPMI culture medium for 20 min at 37° C. and washed with the medium to remove residual HOCl; the cells were then incubated for an additional 20 minutes at 37° C. with 50 μM SCN^− and washed again with the medium. FIG. 3D illustrates the structure of the rhodamine-hydroxymic acid-based probe utilized in FIGS. 3A-C.

In another series the target is T1, GSH reductase (GOR) (Homo sapiens, UniProt P00390).
T1 sequence (P00390 45-522 limits assumed): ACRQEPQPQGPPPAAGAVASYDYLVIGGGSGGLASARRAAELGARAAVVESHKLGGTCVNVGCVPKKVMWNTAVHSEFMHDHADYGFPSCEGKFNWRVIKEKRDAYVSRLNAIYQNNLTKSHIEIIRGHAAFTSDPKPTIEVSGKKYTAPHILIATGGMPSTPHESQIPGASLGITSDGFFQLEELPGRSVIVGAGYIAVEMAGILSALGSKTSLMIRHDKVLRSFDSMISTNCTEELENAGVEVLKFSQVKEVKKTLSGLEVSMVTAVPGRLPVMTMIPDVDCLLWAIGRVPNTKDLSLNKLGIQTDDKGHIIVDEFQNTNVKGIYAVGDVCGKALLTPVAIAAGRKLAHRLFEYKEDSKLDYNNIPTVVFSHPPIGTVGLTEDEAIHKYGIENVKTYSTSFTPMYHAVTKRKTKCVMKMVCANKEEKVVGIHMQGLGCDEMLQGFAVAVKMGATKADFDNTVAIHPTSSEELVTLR
Kind of series: inhibition of GSH reductase (GOR) by HOCl and repair by SCN^− (GOR-catalyzed reduction of GSSG by NADPH, kinetic traces at 340 nm). In kind it is biochemical. The method, then: FIG. 2 contains kinetic traces at 340 nm depicting the GOR-catalyzed reduction of GSSG by NADPH. Conditions: (Control) [GSSG]o=1 mM, [NADPH]o=0.1 mM, [GOR]=0.025 U/mL, [iP]=0.1 M, pH 7.4 and T=25° C.; (SCN^- treated) GOR incubated with 40 μM HOCl for 20 minutes and then treated with 160 μM SCN^- for another 20 minutes. (HOCl modified) GOR incubated with 40 μM HOCl for 20 minutes and then treated with iP for an additional 20 minutes. […] Glutathione (GSH) is a major non-protein thiol in cells (up to mM concentrations have been reported in some cells). One of the cellular functions of GSH is to serve as an antioxidant, and thus GSH is essential for cell survival, especially during conditions of oxidative stress. Many of the important residues in the active site of GOR, including two cysteines ([…]) and tyrosine ([…]), are susceptible to HOCl attack. Oxidation of these residues results in the inhibition of enzyme activity.

For the molecule `N#CS` [SCN^−, thiocyanate], the figures for the “recovery of HOCl-damaged cells” value in the series with A549 cells [1] (50 μM SCN^− added within 30 minutes after 50 μM HOCl (FIG. 4D)) and in the series with A549 cells [1] (interval for addition of SCN^− after HOCl 1 hour or more (data not shown)) were “the cells were resuscitated” and “recovery was not observed”, respectively. In the series on A549 cells [1] (50 μM SCN^− present before 50 μM HOCl was added (FIG. 4C)), the “protection of cells from HOCl” value is “efficient scavenger of HOCl”. Moreover, the “fluorescence with probe compound (1) (intracellular chloramines)” value in the series on A549 cells [2] (A549 cells treated with 50 μM HOCl and subsequently with 50 μM SCN^− 20 minutes (FIG. 3C)) is recorded as “do not fluoresce”; with A549 cells [2] (A549 cells treated with HOCl in the presence of SCN^− (data not shown)), “did not fluoresce”. The same molecule yielded an enzyme activity recovered at GSH reductase (GOR) (HOCl-modified GOR (40 μM HOCl, 20 minutes) subsequently treated with 160 μM SCN^− for 20 minutes) of roughly 89%.
Take `OCl` [HOCl, hypochlorous acid, reference compound]: the cell killing result in the series on A549 cells [1] (50 μM HOCl (FIG. 4B)) is reported as “kill roughly half of the cells”. Moreover, the apoptotic cells result in the series with A549 cells [1] (under the conditions of these experiments (50 μM HOCl with or without 50 μM SCN^−)) is “essentially no apoptotic cells were observed”. Also, the “fluorescence with probe compound (1) (intracellular chloramines)” value in the series on A549 cells [2] (A549 cells treated with 50 μM HOCl 20 min 37° C., then probe (FIG. 3B)) is “fluoresced”. Besides, the “loss of enzyme activity” value at GSH reductase (GOR) (GOR ~1.3 nM treated with 40 μM HOCl for 20 minutes, loss within 13 minutes, pH 7.4, 25° C.) is listed as roughly 82%.
